Tests used:
[1] = molecular target: T1, human androgen receptor (Homo sapiens, UniProt P10275); assay: Yeast Antiandrogen Screen (YAAS), reporter gene assay; assay type: cell-based; details: coincubated with 2.5 nM testosterone; for IC50: authentic standards 300 nM to 1 mM in ethanol, 24 h, three experiments, four-parameter logistic function, read-out: IC50, antiandrogenic in the YAAS
T1 construct: expressed in transfected cells
T1 sequence (P10275 1-920): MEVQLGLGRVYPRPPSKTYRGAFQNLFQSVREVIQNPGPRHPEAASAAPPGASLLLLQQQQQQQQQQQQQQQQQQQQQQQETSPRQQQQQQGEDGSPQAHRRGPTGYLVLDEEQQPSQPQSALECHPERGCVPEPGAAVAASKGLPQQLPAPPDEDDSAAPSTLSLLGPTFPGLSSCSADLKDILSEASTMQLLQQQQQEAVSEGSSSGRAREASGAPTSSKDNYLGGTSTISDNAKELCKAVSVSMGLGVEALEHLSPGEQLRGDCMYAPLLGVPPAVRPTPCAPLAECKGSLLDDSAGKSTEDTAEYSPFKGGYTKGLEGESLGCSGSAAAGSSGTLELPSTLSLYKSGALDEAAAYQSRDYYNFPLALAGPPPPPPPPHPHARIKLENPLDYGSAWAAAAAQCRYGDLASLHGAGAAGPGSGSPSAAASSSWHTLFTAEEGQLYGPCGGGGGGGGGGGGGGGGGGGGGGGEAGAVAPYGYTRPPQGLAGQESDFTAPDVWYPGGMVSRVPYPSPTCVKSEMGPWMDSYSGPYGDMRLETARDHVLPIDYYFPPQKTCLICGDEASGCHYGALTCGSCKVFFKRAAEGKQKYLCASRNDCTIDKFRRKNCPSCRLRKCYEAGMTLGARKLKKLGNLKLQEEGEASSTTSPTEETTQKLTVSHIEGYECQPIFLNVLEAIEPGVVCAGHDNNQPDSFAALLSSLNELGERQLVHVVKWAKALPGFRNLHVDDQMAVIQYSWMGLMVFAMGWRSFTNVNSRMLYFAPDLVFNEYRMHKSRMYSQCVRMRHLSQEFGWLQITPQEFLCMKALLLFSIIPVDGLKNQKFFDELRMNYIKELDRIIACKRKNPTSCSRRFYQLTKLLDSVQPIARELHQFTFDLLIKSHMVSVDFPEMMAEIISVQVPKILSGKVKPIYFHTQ
Protocol: (§1) The antiestrogenic and antiandrogenic activity of bottled water extracts was evaluated in reporter gene assays for human estrogen receptor alpha (Yeast Antiestrogen Screen, YAES) and human androgen receptor (Yeast Antiandrogen Screen, YAAS). To detect antagonists, Yeast Estrogen Screen and Yeast Androgen Screen were modified to analyze samples in the presence of the endogenous ligand of each receptor (17β-estradiol, testosterone). Receptor antagonists present in the sample cause a displacement of the endogenous ligand resulting in a decreased reporter gene signal.
(§2) The general assay procedures have been described previously, [24]. Briefly, SPE extracts were diluted 480 fold in assay medium and coincubated with 30 pM 17β-estradiol (YAES) or 2.5 nM testosterone (YAAS) dissolved in ethanol. Negative controls, solvent controls (ethanol and DMSO) with and without endogenous ligand, and positive controls (ligand coincubated with a known receptor antagonist, YAES: 80 µM hydroxytamoxifen, YAAS: 50 µM flutamide) were included in each experiment. The maximum solvent concentration was 0.4% v/v in all cases. Samples were analyzed in eight replicates, controls in 8–48 replicates. After 24 hours incubation at 30°C turbidity was read to assess cytotoxicity and β-galactosidase activity was determined. Samples from three extractions were tested in three independent YAES and YAAS experiments each.
(§3) Inhibition data is reported as means of three SPE extracts per sample analyzed in three experiments (with eight replicates each) resulting in a sample size of 63–72. The reported antagonistic activity corresponds to a sample volume equivalent to 3.75 mL bottled water.
Chemicals with best matching fragmentation and plausible structure (DEHM, DOM, DEHF, DOF) were purchased as authentic standards. Their antiestrogenic and antiandrogenic activity was evaluated in the bioassays (three experiments) as described above in concentrations ranging from 300 nM to 1 mM (in ethanol).

[2] = molecular target: T2, human estrogen receptor alpha (Homo sapiens, UniProt P03372); assay: Yeast Antiestrogen Screen (YAES), reporter gene assay; assay type: cell-based; details: coincubated with 30 pM 17β-estradiol; for IC50: authentic standards 300 nM to 1 mM in ethanol, 24 h, three experiments, four-parameter logistic function, read-out: IC50, antiestrogenic in the YAES
T2 construct: expressed in transfected cells
T2 sequence (P03372 1-595): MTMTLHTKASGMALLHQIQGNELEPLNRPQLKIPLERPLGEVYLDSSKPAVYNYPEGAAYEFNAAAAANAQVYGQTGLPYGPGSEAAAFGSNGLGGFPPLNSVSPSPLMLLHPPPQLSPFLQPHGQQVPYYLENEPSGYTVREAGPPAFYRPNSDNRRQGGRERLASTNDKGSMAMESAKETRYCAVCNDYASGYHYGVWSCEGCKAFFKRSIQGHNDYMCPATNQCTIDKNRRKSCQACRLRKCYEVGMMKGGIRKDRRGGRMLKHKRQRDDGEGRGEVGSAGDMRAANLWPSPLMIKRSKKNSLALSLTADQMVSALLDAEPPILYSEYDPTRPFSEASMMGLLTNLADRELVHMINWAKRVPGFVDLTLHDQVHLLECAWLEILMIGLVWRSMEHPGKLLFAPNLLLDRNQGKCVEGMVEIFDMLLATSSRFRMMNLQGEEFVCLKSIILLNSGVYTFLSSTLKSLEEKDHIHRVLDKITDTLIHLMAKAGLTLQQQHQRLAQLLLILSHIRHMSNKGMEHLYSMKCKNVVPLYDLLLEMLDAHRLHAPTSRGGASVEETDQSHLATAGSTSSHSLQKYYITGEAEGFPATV
Protocol: as §1, §2, §3
Their antiestrogenic and antiandrogenic activity was evaluated in the bioassays (three experiments) as described above in concentrations ranging from 300 nM to 1 mM (in ethanol).

For `CCCCC(CC)COC(=O)/C=C/C(=O)OCC(CC)CCCC` (stereo not shown) [DEHF, 2-Butenedioic acid (2E)-, 1,4-bis(2-ethylhexyl) ester], the “antiandrogenic activity in the YAAS (result in words)” value (shortened to “antiandrogenic activity in the YAAS”) [1] was “inactive”.

`CCCCC(CC)COC(=O)/C=C\C(=O)OCC(CC)CCCC` (stereo not shown) [DEHM, 2-Butenedioic acid (2Z)-, 1,4-bis(2-ethylhexyl) ester] was tested, and the “antiandrogenic activity in the YAAS” value [1] was “inactive”.

With `CCCCCCCCOC(=O)/C=C/C(=O)OCCCCCCCC` [DOF, 2-Butenedioic acid (2E)-, 1,4-dioctyl ester] the IC50 [1] was 15.8 µM, the “antiandrogenic activity in the YAAS” value [1] was “partially” and the IC50 [2] was 35.4 µM. For the same compound, the “antiestrogenic activity in the YAES (result in words)” value [2] was “partially”.

`CCCCCCCCOC(=O)/C=C\C(=O)OCCCCCCCC` [DOM, 2-Butenedioic acid (2Z)-, 1,4-dioctyl ester] was tested, and the IC50 [1] was 245 µM, the “antiandrogenic activity in the YAAS” value [1] was “at high concentrations” and the IC50 [2] was 107 µM. The “antiestrogenic activity in the YAES (result in words)” value [2] was “at high concentrations”.

Source: article PMC3756062, “Identification of Putative Steroid Receptor Antagonists in Bottled Water: Combining Bioassays and High-Resolution Mass Spectrometry” (PLoS ONE, 2013)
